# From patent US11555180B2, “Methods and apparatuses for patient-derived micro-organospheres” (Xilis, Inc., priority 2019, dated 2023)
# Tests used:
# [1] = test system: tumor Micro-Organospheres; assay: drug screen on Patient-Derived Micro-Organospheres formed from a patient tumor biopsy; format: cell-based; conditions: for percent survival of the Micro-Organospheres in the presence of the drug: Example 3, FIG. 23B, 23C
# Excerpt: The Patient-Derived Micro-Organospheres described herein may be used in a variety of different assays, and in particular may be used to determine drug formulation effects, including toxicity, on normal and/or abnormal (e.g., cancerous) tissue. For example, drug screening may include applying Micro-Organospheres into all or some wells of multi-well (e.g., a 96-well) plate. Alternatively custom plates may be used (e.g., a 10,000 micro-well array may be formed of a 100 × 100 wells). The Micro-Organospheres (e.g., gel droplets) may be applied into, or in some variations onto the multiple microwell arrays and incubated with culture medium. The Micro-Organospheres may be cultured over the course of 3-5 days. In some variations, on day 5, the wells (e.g., micro-reactors) may then be dosed with drug compounds, e.g., based on a set of FDA-approved anticancer drugs, to examine the effects of the drug panel. For example, the drugs texted may be based on the National Cancer Institute (Division of Cancer Treatment and Diagnosis (11)) screen, consisting of 147 agents intended to enable cancer research, drug discovery and combination drug studies. On Day 7, the Micro-Organospheres may be imaged via standard fluorescent microscopy and ranked based on drug response.
# In this example, the screening assay may be automated. This may enable repeatable and automated workflow, which may increase the number of drugs screened from a few to hundreds. FIGS. 17A-17E illustrate one example of this workflow. In FIG. 17A, a tumor biopsy is taken and a plurality (e.g., >10,000) Micro-Organospheres are formed as described above (in FIG. 17A the junction region forming the Micro-Organospheres is illustrated).
# The workflow shown in FIGS. 17A-17E may enable an integrated device to be used for growing, dosing and/or reviewing the Micro-Organospheres. […] Their response to drug treatments, such as IC-50, cytotoxicity, and growth curves, may be measured to identify effective therapeutics against the patient's tumor.
# patient tumor = assay: actual response of the patient's tumor to treatment with the drug; format: in vivo
# Method: In a similar set of experiments, Micro-Organospheres were generated from biopsy material (FIG. 23A), and a drug effect screen was performed using the resulting Micro-Organospheres. […] Thus, the Micro-Organospheres correlated strongly with patient response to the standard of care drugs. In this case, the patient endured six months of side effects and toxicities that may have been avoided by the predicted response from the Micro-Organospheres, indicating (within 7-10 days from the biopsy) that the tumor would not respond to these drugs.
# traditional cell line = assay: traditional (2D) tumor cell line dosed with drug; format: cell-based; conditions: Example 2, FIG. 22A, all dose ranges examined
# Excerpt: As mentioned above, the Patient-Derived Micro-Organospheres and methods of using them to screen for drug compositions may be used to accurately predict the response of a patient tumor to one or more drug therapies. […] For example, in FIG. 22A-22D, the Micro-Organospheres, but not a cell line, was able to correlate with patient response.
smiles,measurement,setting,value
CCc1c2c(nc3ccc(OC(=O)N4CCC(N5CCCCC5)CC4)cc13)-c1cc3c(c(=O)n1C2)COC(=O)[C@]3(O)CC [Irinotecan],percent survival of the Micro-Organospheres in the presence of the drug,[1],lack of effect
O=C1[O][Pt]2([NH][C@@H]3CCCC[C@H]3[NH]2)[O]C1=O [Oxaliplatin],cell survival of tumor Micro-Organospheres,"[1]; Example 2, FIG. 22B",significant decreases in cell survival
same,percent survival of the Micro-Organospheres in the presence of the drug,[1],no change in the percent survival
same,tumor response to treatment,"patient tumor; Example 2, FIG. 22C (before) and 22D (post treatment)",responded to treatment
same,patient response to treatment,"patient tumor; Example 3, treated with both Oxalipalatin and Irinotecan, after 6 months of treatment",no response
same,effect of the drug on the cell line,traditional cell line,no effect
